Article PMC3746831 (Pharmaceutical research, 2013)
Where two headings read alike, the source gives them in different places.

Tests used:
[1] = test system: Herpes Simplex Virus 2 (HSV-2), MS strain; assay: Plaque reduction assay for HSV-2 in HFF cells; type: cell-based; conditions: for EC50: read-out: HSV-2 EC50; for EC90: read-out: HSV-2 EC90
HFF cells = assay: in vitro; type: cell-based, human
[2] = test system: Epstein-Barr Virus (EBV), Akata; assay: DNA hybridization assay for EBV in Akata cells; type: cell-based; conditions: 72 h; for EC50: read-out: EBV EC50; for EC90: read-out: EBV EC90
[3] = test system: Human Cytomegalovirus (HCMV), AD169 strain; assay: Plaque reduction assay for HCMV in HFF cells; type: cell-based; conditions: for EC50: read-out: HCMV EC50, control is GCV; for EC90: read-out: HCMV EC90, control is GCV
Akata cells = assay: in vitro; type: cell-based, human
[4] = test system: Herpes Simplex Virus 1 (HSV-1), E-377 strain; assay: Plaque reduction assay for HSV-1 in HFF cells; type: cell-based; conditions: for EC50: read-out: HSV-1 EC50; for EC90: read-out: HSV-1 EC90
HCEC cells = assay: Cellular uptake study on HCEC cells; type: cell-based, human; conditions: sodium free DPBS, 37°C, relative to uptake with sodium
[5] = Enzymatic hydrolysis in cornea homogenate; conditions: 100 μM prodrug, 0.5mg/mL protein, 34°C
[6] = Enzymatic hydrolysis in lens homogenate; conditions: 100 μM prodrug, 34°C
[7] = Enzymatic hydrolysis in iris-ciliary body; conditions: 100 μM prodrug, 34°C
in vitro [8] = type: cell-based, human; conditions: human
in vitro [9] = type: cell-based, human; conditions: human; remark: listed apart in the source
[10] = Akata cells, viral DNA accumulation
[11] = human gammaherpesvirus 4, Akata

| SMILES | EC50 ([1]; MS strain, HFF cells) | EC90 ([1]; MS strain, HFF cells) | CC50 (HFF cells) | EC50 [2, 10] | EC90 [2, 10] | EC50 [3] | EC90 [3] | CC50 (Akata cells) | EC50 ([4]; E-377 strain, HFF cells) | EC90 ([4]; E-377 strain, HFF cells) | Uptake in the presence of a sodium free buffer (reduced to) (HCEC cells) | Cornea Rate constant [5] | CC50 (in vitro [8]) | other results |
| --- | --- | --- | --- | --- | --- | --- | --- | --- | --- | --- | --- | --- | --- | --- |
| CCCCCCC(O)CC=CCCCCCCCC(=O)OCCOCn1cnc2c(=O)[nH]c(N)nc21 (stereo not shown) [R-ACV, Ricinoleicacid-acyclovir] | 3.4 µM | 8.89 µM | > 300 µM | 10.7 µM | 49.5 µM | 46.5 µM | > 300 µM | > 60 µM | 8.3 µM | 168 µM | – | – | – | – |
| CCCCCCC(CCCCCCCCCCC(=O)OCCOCn1cnc2c(=O)[nH]c(N)nc21)OC(=O)CCCC[C@@H]1SC[C@@H]2NC(=O)N[C@@H]21 (stereo partly shown) [B-12HS-ACV, Biotin-12hydroxystearicacid-acyclovir] | < 0.096 µM | 4.65 µM | > 300 µM | 37.2 µM | > 60 µM | > 300 µM | > 300 µM | > 60 µM | < 0.096 µM | 0.42 µM | ~41% | 1.78 ± 0.29 k×10^3 min^−1 mg protein^-1 | – | – |
| Nc1nc2c(ncn2COCCOC(=O)CCCC[C@@H]2SC[C@@H]3NC(=O)N[C@@H]32)c(=O)[nH]1 [B-ACV, Biotin-acyclovir] | > 300 µM | > 300 µM | – | 22.3 µM | 52.8 µM | – | – | > 60 µM | 182 µM | > 300 µM | ~45% | 1.99 ± 0.21 k×10^3 min^−1 mg protein^-1 | – | Degradation in lens homogenate (in words) [6]: complete degradation; Degradation in ICB homogenate (in words) [7]: complete degradation; Cornea Half-life [5]: 5.80 ± 0.49 h |
| Nc1nc2c(ncn2COCCO)c(=O)[nH]1 [ACV, Acyclovir, reference compound] | – | – | – | – | – | – | – | – | – | – | – | – | > 100 µM | EC50 ([1]; Human alphaherpesvirus 2, HFF): 5.98 µM; EC90 ([1]; Human alphaherpesvirus 2, HFF): > 100 µM; CC50 (HFF cells; human): > 100 µM; EC50 [2, 11]: 12.4 µM; EC90 [2, 11]: 67.3 µM; CC50 (in vitro [9]): > 100 µM; EC50 ([4]; Human alphaherpesvirus 1, HFF): 3.43 µM; EC90 ([4]; Human alphaherpesvirus 1, HFF): > 100 µM |
| Nc1nc(O)c2ncn(COC(CO)CO)c2n1 [GCV, Ganciclovir, reference compound] | – | – | – | – | – | – | – | – | – | – | – | – | > 100 µM | – |
| CCCCCCC(O)CCCCCCCCCCC(=O)OCCOCn1cnc2c(=O)[nH]c(N)nc21 (stereo not shown) [12HS-ACV, 12hydroxystearicacid-acyclovir] | 0.41 µM | > 300 µM | – | 35.8 µM | 55 µM | 101 µM | 137 µM | 47.3 µM | 1.16 µM | 6.24 µM | – | – | – | Increase in antiviral activity against HSV-2 relative to ACV (by EC50) ([1]; from EC50 values): > 15 fold; Increase in antiviral activity against HSV-1 relative to ACV (by EC50) ([4]; from EC50 values): greater than 3 fold |
